Patent US20140045860A1, “SMALL MOLECULE INHIBITORS FOR TREATING PARASITIC INFECTIONS” (NEW YORK UNIVERSITY, priority 2011, published 2014)
Values joined by “and” are separate entries in the source; they are usually repeats but may differ in a detail not shown here. Equal values may be shown once. Read-outs that look alike come from different tables or passages of the source.

Columns and labels:
Type in all cases: cell-based
L. don. axen. = experiment: In vitro counter screen, L. don. axen.
Experimental: (§1) In vitro counter screens were performed to confirm our findings.

P. falc. K1 = experiment: In vitro counter screen, P. falc. K1
Experimental: as §1

[1] = In vitro counter screen, cytotoxicity L6; conditions: murine
T. b. rhod. = experiment: In vitro counter screen, T. b. rhod.
Experimental: as §1

T. cruzi [2] = experiment: In vitro counter screen, T. cruzi; conditions: Trypanosoma cruzi
Experimental: (§2) A high-throughput screen of small molecules was performed in duplicate in the recombinant Tulahuen strain of T. cruzi stably expressing a beta-galactosidase reporter gene. Trypomastogote-stage parasites were co-cultured with mouse fibroblast NIH/3T3 host cells, (Buckner F S, Verlinde C L, La Flamme A C, Van Voorhis W C. Efficient technique for screening drugs for activity against Trypanosoma cruzi using parasites expressing beta-galactosidase. Antimicrob Agents Chemother. 1996; 40(11): 2592-2597). Signal was normalized to neutral (DMSO) controls, and a 75% inhibition cutoff was used to define a hit. Compounds initially designated as hits were retested in dose in the primary assay to confirm their inhibitory activity. In parallel, compounds were tested in toxicity assays against NIH/3T3 host cells to determine if these compounds were cytotoxic to mammalian cells and thus, false positives. Compounds that reduced the viability of NIH/3T3 cells were excluded as viable hits. A subset of hits were then tested in a similar infection assay with the Tulahuen strain of T. cruzi infecting murine L-6 cells and the intracellular T. cruzi immunofluorescence assay described below.
as §1

T. cruzi [3] = experiment: T. cruzi inhibition assay (beta-galactosidase T. cruzi co-cultured with NIH/3T3 host cells); conditions: Trypanosoma cruzi, NIH3T3; Table 2
Experimental: as §2
1. T. cruzi Inhibition Assay
98% DMEM, Phenol Red, 2% FBS, and 1% PSG were mixed and filtered through a 0.2 microns membrane. The cells were kept at 4° C., then warmed up to 37° C. in a water bath before use.
Gal-Screen. Using a Gal-Screen base kit, Buffer B (Catalog no. T2361) was mixed with 1:25 substrate (Catalog no. T2359).
NIH/3T3 cells were cultivated in DMEM supplemented with 10% FBS and 1% PSG in T175 in 50 mL total of medium.
Parasite Culture: T. cruzi β-gal (Tc): T. cruzi β-gal were cultivated in DMEM supplemented with 2% FBS and 1% PSG in T175 flasks with vented caps in 50 mL total of medium.
2. Growth Inhibition Assay for HTS (384-Well Plates)
The medium was warmed up with 2% FBS/DMEM. The parasites were harvested in 50-mL tubes, and spun for 10 minutes at 2200 rpm. Approximately 15 mL of media was aspirated, and the samples were incubated for 3-5 h. The NIH/3T3 cells were trypsinized (refer to cell culture protocol). When the NIH/3T3 cells were detached, the cells were harvested in DMEM, 2% FBS, and 1% PSG, then counted using the Nexcelom cellometer. The cells were diluted to 166,667 cells/mL, then added to a flask and plated 5,000 cells/30 μL per well using a standard cassette multiwall drob Combi. The cells were incubated for 3 h, then T. cruzi cells were counted, diluted to 0.166 million cells/mL, and transferred to a 2-liter flask. Then, […] compounds/DMSO were pinned to each well with NIH/3T3 cells. Next, 30 μL/well of parasites (5000 T. cruzi) were added with a standard cassette multiwall drop Combi on slow speed, and incubated for 4 days (or a minimum of 90 h). Gal-Screen was prepared, 30 μL per well were dispensed in a 384-well plate, incubated for 60 minutes, and the luminescence was read using Envision (Perkin-Elmer) at 0.1 sec/well.

[4] = same result as ug/mL, in uM, read-out: L. don. Axen (IC50 uM)
[5] = same result as ug/mL, in uM, read-out: P. falc. K1 (IC50 uM)
[6] = read-out: T. b. rhod. (IC50, ug/mL)
[7] = same result as ug/mL, in uM, read-out: T. b. rhod (IC50 uM)
[8] = read-out: T. cruzi IC50 (ug/mL)

Row | Compound | IC50 (L. don. axen.; read-out: L. don. axen. IC50) [µg/mL] | IC50 (L. don. axen.; [4]) [µM] | IC50 (P. falc. K1; read-out: P. falc. K1 IC50) [µg/mL] | IC50 (P. falc. K1; [5]) [µM] | IC50 [1] | IC50 (T. b. rhod.; [6]) [µg/mL] | IC50 (T. b. rhod.; [7]) [µM] | IC50 (T. cruzi [2]; read-out: T. cruzi (IC50 uM)) [µM] | IC50 (T. cruzi [2]; [8]) [µg/mL] | IC50 (L. don. axen.; read-out: L. don. Axen (IC50 uM)) [µM] | IC50 ([1]; L6 cells, same result as ug/mL, in uM, read-out: cytotox, (IC50 uM)) [µM] | IC50 (T. cruzi [3]) [µM]
1 | C[C@H](CO)N1C[C@H](C)[C@H](CN(C)Cc2ccccc2)Oc2c(NC(=O)c3ccncc3)cccc2C1=O [Compound 1] | > 100 | > 199 | 20.6 | 41 | > 199 µM and > 100 µg/mL | 75.4 | 150 | 1.24 | 0.622 |  |  | 
2 | COc1ccc(CN(C)C[C@@H]2Oc3c(NC(=O)c4ccncc4)cccc3C(=O)N([C@H](C)CO)C[C@H]2C)cc1 [Compound 5] | > 100 | > 188 | 7.39 | 13.9 | > 188 µM and > 100 µg/mL | 20.2 | 37.9 | 1.31 | 0.699 |  |  | 
3 | C[C@@H]1CN([C@@H](C)CO)C(=O)c2cccc(NC(=O)c3ccncc3)c2O[C@H]1CN(C)Cc1ccc(-c2ccccc2)cc1 [Compound 7] | 13.3 | 23 | 1.2 | 2.07 | 23.3 µM and 13.5 µg/mL | 0.729 | 1.26 | 0.123 | 0.071 |  |  | 
4 | C[C@@H]1CN([C@H](C)CO)C(=O)c2cccc(NC(=O)c3ccncc3)c2O[C@H]1CN(C)Cc1ccc2c(c1)OCO2 [Compound 8] |  |  |  | 10.6 |  |  | 12.5 | 0.143 |  | > 183 | > 183 | 
5 | C[C@@H]1CN([C@H](C)CO)C(=O)c2cccc(NC(=O)c3ccncc3)c2O[C@H]1CN(C)Cc1ccccc1 [Compound 9] | 84.4 | 168 | 4.83 | 9.61 | > 199 µM and > 100 µg/mL | 35.1 | 69.8 | 0.304 | 0.153 |  |  | 
6 | C[C@H](CO)N1C[C@H](C)[C@@H](CN(C)Cc2ccc(C(F)(F)F)cc2)Oc2c(NC(=O)c3ccncc3)cccc2C1=O [Compound 13] | 16.3 | 28.6 | 2.95 | 5.17 | 79.7 µM and 45.5 µg/mL | 3.49 | 6.12 | 0.875 | 0.499 |  |  | 
7 | C[C@H]1CN([C@@H](C)CO)C(=O)c2cccc(NC(=O)c3ccncc3)c2O[C@H]1CN(C)Cc1ccccc1 [Compound 17] | > 100 | > 199 | 5.64 | 11.2 | > 199 µM and > 100 µg/mL | 6.14 | 12.2 | 0.39 | 0.196 |  |  | 
8 | C[C@H]1CN([C@@H](C)CO)C(=O)c2cccc(NC(=O)c3ccncc3)c2O[C@H]1CN(C)Cc1ccc(-c2ccccc2)cc1 [Compound 20] | 6.47 | 11.2 | 1.14 | 1.97 | 30.2 µM and 17.5 µg/mL | 6.41 | 11.1 | 0.394 | 0.228 |  |  | 
9 | C[C@@H]1CN([C@@H](C)CO)C(=O)c2cccc(NC(=O)c3ccncc3)c2O[C@H]1CN(C)Cc1ccc(Oc2ccccc2)cc1 [Compound 21] |  |  |  |  |  |  |  |  |  |  |  | < 0.0026
10 | C[C@@H](CO)N1CC[C@H](CN(C)Cc2cccc(Cl)c2)Oc2c(NC(=O)c3ccncc3)cccc2C1=O [Compound 22] |  |  |  |  |  |  |  |  |  |  |  | < 0.0026
11 | C[C@@H]1CN([C@@H](C)CO)C(=O)c2cccc(NC(=O)c3ccncc3)c2O[C@H]1CN(C)C [Compound 23] |  |  |  |  |  |  |  |  |  |  |  | > 10
12 | C[C@H](CO)N1C[C@H](C)[C@@H](CN(C)Cc2ccc(Oc3ccccc3)cc2)Oc2c(NC(=O)c3ccncc3)cccc2C1=O [Compound 24] |  |  |  |  |  |  |  |  |  |  |  | < 0.0026
13 | C[C@@H]1CN([C@@H](C)CO)C(=O)c2cc(Br)cnc2O[C@H]1CN(C)Cc1ccc2c(c1)OCO2 [Compound 25] |  |  |  |  |  |  |  |  |  |  |  | > 10
14 | C[C@@H]1CN([C@@H](C)CO)C(=O)c2cccc(NC(=O)c3ccncc3)c2O[C@H]1CN(C)Cc1ccccc1Cl [Compound 26] |  |  |  |  |  |  |  |  |  |  |  | 0.0039
15 | C[C@@H]1CN([C@H](C)CO)C(=O)c2cccc(NC(=O)c3ccncc3)c2O[C@H]1CN(C)Cc1ccc2c(c1)OCO2 [Compound 27] |  |  |  |  |  |  |  |  |  |  |  | 0.00148
